Assay results reported in ChEMBL document CHEMBL2073931, “Interaction between methotrexate and nonsteroidal anti-inflammatory drugs in organic anion transporter” (Eur J Pharmacol, 2000).

Target: T1, Solute carrier family 22 member 6 (Rattus norvegicus, UniProt O35956)
T1 sequence (O35956 whole entry): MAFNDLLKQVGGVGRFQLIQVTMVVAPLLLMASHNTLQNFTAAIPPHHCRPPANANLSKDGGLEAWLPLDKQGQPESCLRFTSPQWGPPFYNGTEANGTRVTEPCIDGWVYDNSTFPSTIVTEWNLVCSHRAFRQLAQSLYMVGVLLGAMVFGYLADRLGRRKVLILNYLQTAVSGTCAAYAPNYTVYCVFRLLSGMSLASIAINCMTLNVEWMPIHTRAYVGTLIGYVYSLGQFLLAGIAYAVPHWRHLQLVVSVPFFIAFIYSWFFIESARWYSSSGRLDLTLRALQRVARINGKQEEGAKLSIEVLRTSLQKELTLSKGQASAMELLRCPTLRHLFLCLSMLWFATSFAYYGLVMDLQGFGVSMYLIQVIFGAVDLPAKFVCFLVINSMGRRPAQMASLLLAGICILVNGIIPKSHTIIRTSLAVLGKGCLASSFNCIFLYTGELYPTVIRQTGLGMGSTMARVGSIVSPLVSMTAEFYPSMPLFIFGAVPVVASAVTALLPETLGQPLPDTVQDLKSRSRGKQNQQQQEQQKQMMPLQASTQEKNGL
Experiment: TP_TRANSPORTER: inhibition of MTX uptake in Xenopus laevis oocytes
Format: functional, cell-based, Oocyte
Conditions: for Activity: xenopus laevis, oocyte

| SMILES | Activity | further results |
| --- | --- | --- |
| CCCCC1C(=O)N(c2ccccc2)N(c2ccccc2)C1=O [PHENYLBUTAZONE] | inhibitor [+] | – |
| CC(C(=O)O)c1cccc(C(=O)c2ccccc2)c1 (centres undefined) [KETOPROFEN] | – | IC50: 500 nM |
| O=C(O)c1ccccc1Nc1cccc(C(F)(F)F)c1 [FLUFENAMIC ACID] | inhibitor [+] | – |
| COc1ccc2c(c1)c(CC(=O)O)c(C)n2C(=O)c1ccc(Cl)cc1 [INDOMETHACIN] | – | Ki: 4200 nM |
